Results on six molecules are retold here after patent US20250276100A1, “DEVELOPMENT OF NTSR TARGETED AGENTS FOR IMAGING AND THERAPY APPLICATIONS” (THE UNIVERSITY OF NORTH CAROLINA AT CHAPEL HILL, priority 2022, published 2025).

Entries after “also recorded” stand apart in the source; their conditions may differ. Read-outs that look alike come from different tables or passages of the source. Where a SMILES comes first, the peptide text is derived from it. [ ]: non-standard residue; d: D form. The star is where a group is joined. Gly(1-amidinopiperidin-4-yl) = N=C(N)N1CCC([C@H](N)C(=O)O)CC1; Gly(piperidin-4-yl) = N[C@H](C(=O)O)C1CCNCC1; NMeR = CN[C@@H](CCCNC(=N)N)C(=O)O; Tle = CC(C)(C)[C@H](N)C(=O)O; X1 = O=S(=O)(CCOCCOCCF)CC*

For series [1], the system named is tumor. An excerpt:
Copper-64 (t1/2=12.7 hr) decays by β+ (20%) and β− emission (37%), as well as electron capture (43%), making it well suited for radiolabeling proteins, antibodies and peptides, for both PET imaging (β+) and therapy (β+ and β−). Limitations to the chelating agents currently used with ^64Cu include significant loss of ^64Cu from the conjugate, leading to high uptake in the liver. In order to overcome this limitation, a new class of bifunctional chelators (BFCs) based on the hexaazamacrobicyclic sarcophagine cage SarAr (1-N-(4-aminobenzyl)-3,6,10,13,16,19-hexaazabicyclo[6.6.6]-eicosane-1,8-diamine) was synthesized. These ligands coordinate metal ions such as Cu^2+ within the multiple macrocyclic rings comprising the Sar cage structure, yielding extraordinarily stable complexes that are inert to dissociation of the metal ion. The functionalization approach of Sar cage was improved through a direct alkylation (SN2) reaction.
However, the kidneys have much higher tracer uptake compared with liver, while the pattern was reversed on PET imaging (Cu-64 falls off DOTA and leads to high liver uptake).

The nature of series [2]: side by side comparison of 64Cu labeled SR-CP-05 with NT peptide analogs and 3BP-227 (FIG. 8), tumor uptake and contrast. The class given is in vivo. The settings on record: tumor; for tissue uptake: mouse, NT peptide analogs, read-out: absolute tumor uptake value; for tissue uptake at 1 hr: FIG. 8 side by side comparison, 1 hr post injection. From the text:
(§1) The NTSR1 targeted imaging agent was constructed based on NTS peptide derivatives. Although high tumor-to-background contrast could be obtained, the absolute tumor uptake was moderate with fast clearance from the subject. Moreover, these NTSR1 binding peptides are generally agonists of NTSR1, which may promote tumor progress at high concentration. This may not be a concern for PET imaging due to the limited amount, but it could be a potential risk in treatment. Antagonistic SR142948A based agents were developed, the lead agent being 3BP-227. Side by side comparisons between the lead agent SR-CP-05 and previously reported agents were performed. […] Importantly, SR-CP-05 maintained >15% ID/g tumor uptake at 48 hr post injection. In contrast, the tumor uptake of 3BP-227 decreased to 2.3% ID/g at 24 hr post injection. The unique distribution profile of SR-CP-05 can provide an imaging and radionuclide-based therapy agent targeting NTSR1.
(§2) SR-CP-05 was discovered to be well suited for therapy applications. […] Clearly, the fast clearance may be acceptable from an imaging point of view, but these ligands are not suited for therapeutic applications. […] Importantly, high contrast (tumor/background >20) was obtained at 1 hr post injection and the washout was minimal even after 48 hr post injection. […] Clearly, SR-CP-05 represents a highly promising ligand for both imaging and therapy applications.
(§3) Solution 1) The discovery of a new NTSR1 ligand SR-CP-05 for targeted imaging and therapy. The introduction of crosslinked polyamines into SR142948A (leading to the new agent, SR-CP-05) could increase the tumor uptake by 10 times compared with peptide based agents. Although the tumor to muscle contrast was reduced somewhat right after injection, the ratio is still >20 at 1 hr post injection. More importantly, the agent stayed within the tumor for up to 48 hr, making it useful for therapeutic applications as well. Side by side comparisons were made between SR-CP-05 and previously reported agents. […] Importantly, high contrast (tumor/muscle >20) was also obtained for SR-CP-05 at 1 hr post injection and the washout is minimal after 48 hr post injection (compared with tumor/muscle >3 at 1 hr post injection for 3BP-227). […] The unique distribution profile of SR-CP-05 provides an imaging and radionuclide-based therapy targeting NTSR1.

Series [3] has as its target T1, NTSR1 (Homo sapiens, UniProt P30989).
T1 construct: from tissue; host or cells: NTSR1-positive tumour in vivo
In words: in vivo distribution profile of SR-CP-05 derivatives (FIG. 13).

Series [4] addresses T1, NTSR1. Nature of the series: side by side comparison of 64Cu labeled SR-CP-05 with NT peptide analogs and 3BP-227 (FIG. 8), tumor uptake and contrast. The class given is in vivo.
Source text: as §1, §2, §3

The subject of series [5] is PC3 tumor. In words: microPET imaging and biodistribution of 18F labeled NTS peptide agent in PC3 tumor-bearing nude mice. In kind it is in vivo. The method, then:
(§4) The arrow indicates tumor. […]
(§5) Stabilized NTS peptide derivatives and constructed NTSR1 PET agents have been developed. A stabilized NTS analog with a Cys for ^18F labeling (Cys-NTSmut: Cys-pipGly-Pro-pipAmGly-Arg-Pro-Tyr-tBuGly-Leu-OH) was designed. […] Biodistribution studies were performed at 3 hr post injection, showing the tumor to muscle, liver, and kidney ratios at 19.4±5.5, 15.6±4.1, and 3.0±0.3, respectively. […] Despite the high contrast, its tumor retention is low.
(§6) Robust ^18F-labeling methods for facile preparation of ^18F-NTS agents based on NT peptide derivatives were developed. As one of the commonly used PET radioisotopes, ^18F can be easily produced in high quantities on a medical cyclotron with an ideal half-life of 110 min for imaging applications. The half-life of ^18F is sufficient to allow synthesis, transportation, and imaging procedures to be extended over several hours, while the patient is subjected to a limited amount of radiation exposure. A platform technology based on vinyl sulfone and TTCO ligation was developed, both of which are highly efficient for ^18F PET probe construction. After establishing efficient ^18F labeling methods, a stabilized NTS analog was designed with a Cys for ^18F labeling (Cys-NTSmut: Cys-pipGly-Pro-pipAmGly-Arg-Pro-Tyr-tBuGly-Leu-OH). Both ^18F-VS and TTCO ligation have been used to construct ^18F labeled PET agents targeting NTSR1.

Test in series [6]: as above
In kind it is in vivo. The conditions noted are these: male, athymic nude, mouse, PC3 tumor model; for tissue to tissue ratio at 3 h: biodistribution at 3 hr post injection. How it is done: as §4, §5, §6

The mark [7] stands for this setting: PC3 tumor model, biodistribution at 3 hr post injection.

T1 sequence (P30989 whole entry): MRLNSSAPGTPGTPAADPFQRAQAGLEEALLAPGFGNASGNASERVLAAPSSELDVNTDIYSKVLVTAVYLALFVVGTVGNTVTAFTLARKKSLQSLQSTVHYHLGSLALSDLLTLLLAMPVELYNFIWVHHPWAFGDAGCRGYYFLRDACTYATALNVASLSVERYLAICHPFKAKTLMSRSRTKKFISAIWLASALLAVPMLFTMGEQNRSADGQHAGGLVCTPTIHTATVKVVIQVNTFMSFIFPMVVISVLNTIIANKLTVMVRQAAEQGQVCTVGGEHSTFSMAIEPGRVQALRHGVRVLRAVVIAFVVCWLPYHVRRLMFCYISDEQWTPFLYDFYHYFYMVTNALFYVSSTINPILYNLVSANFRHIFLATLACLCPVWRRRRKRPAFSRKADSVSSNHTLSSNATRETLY

For `CC[N+]1=C(/C=C/C=C/C=C2/N(CCCCCC(=O)NCCCC[C@H](NC(=O)CN3CCN(CC(=O)O)CCN(CC(=O)O)CCN(CC(=O)O)CC3)C(=O)NCCCCCC(=O)N[C@@H](CC(=O)O)C(=O)NCC(=O)N[C@@H](CCC(=O)O)C(=O)NC(C)C(=O)O)c3ccc4c(S(=O)(=O)O)cc(S(=O)(=O)O)cc4c3C2(C)C)C(C)(C)c2c1ccc1c(S(=O)(=O)[O-])cc(S(=O)(=O)O)cc21` (some centres unmarked) [DOTA-K(Cy5.5)-Ahx-DGEA], the “in vivo distribution pattern” value in series [1] is “discrepancy between optical and PET imaging”. Besides, the “ex vivo distribution pattern” value in series [1] (in vivo) is “discrepancy between optical and PET imaging”.
As to `CC(=O)N[C@@H](CCCCN)C(=O)N1CCC[C@H]1C(=O)N(C)[C@@H](CCCNC(=N)N)C(=O)N[C@@H](CCCNC(=N)N)C(=O)N1CCC[C@H]1C(=O)N[C@@H](Cc1ccc(O)cc1)C(=O)N[C@H](C(=O)N[C@@H](CC(C)C)C(=O)O)C(C)(C)C` [NTS20.3, reference compound] (Ac-KP[NMeR]RPY[Tle]L-OH; N-terminus and C-terminus assumed), the tissue uptake in series [2] was ~1.5 %ID/g.
Same read-out and setting: then `CC(C)C[C@H](NC(=O)[C@@H](NC(=O)[C@H](Cc1ccc(O)cc1)NC(=O)[C@@H]1CCCN1C(=O)[C@H](CCCNC(=N)N)NC(=O)[C@@H](NC(=O)[C@@H]1CCCN1C(=O)[C@@H](N)C1CCNCC1)C1CCN(C(=N)N)CC1)C(C)(C)C)C(=O)O` [NTSmut, reference compound] (H-[Gly(piperidin-4-yl)]P[Gly(1-amidinopiperidin-4-yl)]RPY[Tle]L-OH; N-terminus and C-terminus assumed), with ~1.5 %ID/g.
Turning to `CNC(=O)c1ccc(-n2nc(C(=O)NC3(C(=O)O)C4CC5CC(C4)CC3C5)cc2-c2c(OC)cccc2OC)c(C(C)C)c1` (centres unmarked) [SR-CP-05], in series [3] (in vivo), the “liver uptake” value is recorded as “still relatively high”. In series [2] (24 hr post injection), the tissue uptake at 24 hr is > 15 %ID/g. For the same molecule, the tissue uptake at 48 hr in series [2] (48 hr post injection) was > 15 %ID/g. In addition, the tissue uptake at 1 hr was 15.5 %ID/g in series [2], 15.6 %ID/g in series [2] (other: injection (kind of injection not stated)) and 15.6 %ID/g in series [2] (other: injection). Besides, the “overall side by side comparison” value in series [4] (64Cu labeled, FIG. 8) was “outperforms both NT peptide analogs and other agents based on SR142948A”. The tumor/background contrast in series [4] (1 hr post injection) was > 20. Besides, the tumor/muscle ratio in series [4] (1 hr post injection) is on record as > 20. The tumor uptake is > 15 % ID/g in series [4] (FIG. 8 side by side comparison, 1 hr post injection); “both high and persistent tumor uptake” in series [4] (in vivo). Further, in series [4] (after 48 hr (two days) post injection), the “tumor washout” value is recorded as “only a minimal amount of tumor wash out”. The “time the agent stayed within the tumor” value in series [4] (in vivo) is given as “up to 48 hr”. Also, the “tumor uptake higher than 3BP-227” value in series [4] (side by side comparison) was found to be 75%.
As for `COc1cccc(OC)c1-c1cc(C(=O)NC2(C(=O)O)C3CC4CC(C3)CC2C4)nn1-c1ccc(C(=O)N(C)CCCN(C)C(=O)CN2CCCN3CCN(CCCN(CC(=O)O)CC3)CC2)cc1C(C)C` (centres unmarked) [SR-CP-18], the “distribution” value in series [3] (24 hr time point, FIG. 13) is listed as “mainly showed tumor accumulation; also recorded: high contrast”. The “tumor uptake relative to SR-CP-05” value in series [3] (in vivo) is listed as “less than half of SR-CP-05”.
For the molecule `CC(C)C[C@H](NC(=O)[C@@H](NC(=O)[C@H](Cc1ccc(O)cc1)NC(=O)[C@@H]1CCCN1C(=O)[C@H](CCCNC(=N)N)NC(=O)[C@@H](NC(=O)[C@@H]1CCCN1C(=O)[C@@H](NC(=O)[C@@H](N)CSCCS(=O)(=O)CCOCCOCCF)C1CCNCC1)C1CCN(C(=N)N)CC1)C(C)(C)C)C(=O)O` [^18F-VS-Cys-NTSmut] (H-C(X1)[Gly(piperidin-4-yl)]P[Gly(1-amidinopiperidin-4-yl)]RPY[Tle]L-OH; N-terminus assumed), in series [5] (PC3 tumor model), the “background in major tissues/organs, including blood, muscle, liver and kidneys” value is “low background”; the “clearance from mice” value is listed as “cleared out from mice within a few hours”; the “tumor retention” value is recorded as “low”; the tumor uptake came to 1.3±0.1 % ID/g. Further, in series [5] (setting [7]), the tumor/kidney ratio turned out to be 3.0±0.3, the tumor/liver ratio stood at 15.6±4.1 and the tumor/muscle ratio is reported as 19.4±5.5. Also, in series [5] (PC3 tumor, blocking with cold NTS peptide, listed as 18F-DEG-VS-NTS), the “tumor uptake in the presence of cold NTS peptide (receptor specificity)” value was “successfully blocked; also recorded: efficiently blocked”. Further, the tissue to tissue ratio at 3 h in series [6] (tumor and kidney, read-out: tumor/kidney ratio) is 3 ± 0.3. The tissue to tissue ratio at 3 h in series [6] (tumor and liver, read-out: tumor/liver ratio) amounted to 15.6 ± 4.1. Further, the tissue to tissue ratio at 3 h in series [6] (tumor and muscle, read-out: tumor/muscle ratio) was determined as 19.4 ± 5.5. The molecule also displayed a tissue uptake in series [6] of 1.3 %ID/g.
